US20210317505A1, “IMPROVED DETECTION OF ANTICOAGULANTS IN BODY FLUIDS” (DOASENSE GmbH, priority 2017, published 2021)
Where “and” joins values, the source holds several entries; their conditions need not be identical. Identical values can stand only once. Like-named read-outs stand apart in the source and are kept apart here.

Target: factor Xa (Homo sapiens, UniProt P00742)
Details: for difference in reflectance units for the minimum and maximum concentration: 0 ng/mL vs. 1500 ng/mL, native urine; for intensity, mean, Laura Smart No. 1 / intensity, mean, Laura Smart No. 2 / intensity, mean, Laura Smart No. 3 / intensity, mean, all readers / intensity, single, Laura Smart No. 1 / intensity, single, Laura Smart No. 2 / intensity, single, Laura Smart No. 3: 380 nm
Text: Using a modified reflectance photometer, hereinafter also referred to as reader (Laura Smart (LS), ERBA Lachema), native urine samples were investigated using excitation light having either a wavelength of 380 nm or a wavelength of 470 nm. Herein, the samples under investigation contained the direct factor Xa inhibitor rivaroxaban or the direct thrombin inhibitor dabigatran. For each anticoagulant, samples with different concentrations were provided.
Test strips were used on which both the blood clotting factor (factor Xa or thrombin) and the respective chromogenic substrate conjugated to a detectable substance were immobilized, i.e. N-benzoyl-L-isoleucyl-L-glutamyl-L-glycyl-L-arginine-para-nitroaniline (SEQ ID NO:1) together with factor Xa, and N-(para-tosyl)-glycyl-L-prolyl-L-arginine-para-nitroanilide acetate together with thrombin. After dipping the test strip into the urine sample to be investigated for 2 to 3 seconds, incubation was allowed for 10 min. Then, the test strip was inserted into the reader. In total, three different readers (“Laura No. 1”, “Laura No. 2”, and “Laura No. 3”) were used in order to check for any device-specific issues.
In order to suppress fluorescence light which might originate from the released detestable substance (para-nitroaniline), a UV band-pass filter was used made of UG11 glass (Schott AG).
For each single measurement, an intensity value was put out by the respective reader, given in reflectance units (% REM). Each of the readers was able to split up the measured intensity into 1000 increments.
Generally, the higher the concentration of the anticoagulant in the sample, the less detectable substance is released from the chromogenic substrate by the corresponding blood dotting factor. Accordingly, in case of a high concentration of the anticoagulant, the absorption by the sample is low while the reflectance by the sample is high. In order to reliably evaluate the presence or absence of the anticoagulant in the sample, as a general rule, a low concentration of the anticoagulant in the sample should result in a % REM value as low as possible, while a high concentration of the anticoagulant in the sample should result in a % REM value as high as possible. In other words, the difference in reflectance units for the minimum and maximum concentration of the anticoagulant should be as large as possible.

[1] = rivaroxaban 100 ng/mL in native urine
[2] = rivaroxaban 200 ng/mL in native urine
[3] = rivaroxaban 400 ng/mL in native urine
[4] = rivaroxaban 1500 ng/mL in native urine

Sequence of factor Xa (P00742 235-488 limits assumed): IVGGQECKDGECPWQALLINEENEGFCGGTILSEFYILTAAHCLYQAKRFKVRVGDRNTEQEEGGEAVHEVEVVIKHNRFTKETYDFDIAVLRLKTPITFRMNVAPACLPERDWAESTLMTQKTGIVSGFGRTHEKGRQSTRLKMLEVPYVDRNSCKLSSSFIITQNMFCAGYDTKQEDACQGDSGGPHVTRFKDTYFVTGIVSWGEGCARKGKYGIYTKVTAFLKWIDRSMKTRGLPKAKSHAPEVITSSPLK
Sequence of factor Xa (P00742 41-179 partner limits assumed): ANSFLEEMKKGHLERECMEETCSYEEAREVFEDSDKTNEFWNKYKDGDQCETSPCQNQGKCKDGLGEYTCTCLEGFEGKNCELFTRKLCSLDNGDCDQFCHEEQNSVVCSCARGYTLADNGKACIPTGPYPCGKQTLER

O=C(NC[C@H]1CN(c2ccc(N3CCOCC3=O)cc2)C(=O)O1)c1ccc(Cl)s1 [rivaroxaban]
difference in reflectance units for the minimum and maximum concentration (excitation light 380 nm): about 400 % REM
difference in reflectance units for the minimum and maximum concentration (excitation light 470 nm): about 200 % REM
change of the measured intensity with concentration (dark urine samples, excitation light 380 nm): possible to observe a change of the measured intensity with the concentration
intensity, mean, Laura Smart No. 1 [1]: 181 % REM
intensity, mean, Laura Smart No. 2 [1]: 194 % REM
intensity, mean, Laura Smart No. 3 [1]: 199 % REM
intensity, mean, all readers [1]: 191 % REM
intensity, single, Laura Smart No. 1 [1]: 192 % REM and 159 % REM and 193 % REM
intensity, single, Laura Smart No. 2 [1]: 194 % REM and 191 % REM and 196 % REM
intensity, single, Laura Smart No. 3 [1]: 202 % REM and 196 % REM and 199 % REM
intensity, mean, Laura Smart No. 1 [2]: 276 % REM
intensity, mean, Laura Smart No. 2 [2]: 266 % REM
intensity, mean, Laura Smart No. 3 [2]: 315 % REM
intensity, mean, all readers [2]: 286 % REM
intensity, single, Laura Smart No. 1 [2]: 254 % REM and 336 % REM and 238 % REM
intensity, single, Laura Smart No. 2 [2]: 279 % REM and 265 % REM and 253 % REM
intensity, single, Laura Smart No. 3 [2]: 304 % REM and 342 % REM and 299 % REM
intensity, mean, Laura Smart No. 1 [3]: 387 % REM
intensity, mean, Laura Smart No. 2 [3]: 425 % REM
intensity, mean, Laura Smart No. 3 [3]: 387 % REM
intensity, mean, all readers [3]: 400 % REM
intensity, single, Laura Smart No. 1 [3]: 346 % REM and 406 % REM and 409 % REM
intensity, single, Laura Smart No. 2 [3]: 431 % REM and 413 % REM
intensity, single, Laura Smart No. 3 [3]: 423 % REM and 411 % REM and 326 % REM
intensity, mean, Laura Smart No. 1 [4]: 542 % REM
intensity, mean, Laura Smart No. 2 [4]: 518 % REM
intensity, mean, Laura Smart No. 3 [4]: 496 % REM
intensity, mean, all readers [4]: 519 % REM
intensity, single, Laura Smart No. 1 [4]: 537 % REM and 528 % REM and 560 % REM
intensity, single, Laura Smart No. 2 [4]: 588 % REM and 468 % REM and 499 % REM
intensity, single, Laura Smart No. 3 [4]: 501 % REM and 510 % REM and 476 % REM
